We go through 30 compounds from paper PMC4648050, “Discovery of Inhibitors of Trypanosoma brucei by Phenotypic Screening of a Focused Protein Kinase Library” (Chemmedchem, 2015).

The subject of assay [1] is MRC5 cells (human lung fibroblasts). The assay can be described thus: MRC5 proliferation assay. The format is cell-based. The following applies: geometric mean of two or more determinations. How it is done:
(§1) Trypanosome and MRC5 proliferation assay: Measurement of inhibition of the proliferation of MRC5 cells (human lung fibroblasts) and T. brucei bloodstream-stage cells was performed using a modification of a cell viability assay previously described.[35, 36] Compounds ([…] to 0.5 nM) were incubated with 2×10^3 cells per well in 0.2 mL of the appropriate culture medium (MEM with 10 % foetal bovine serum for MRC5 cells) in clear 96-well plates. Plates were incubated at 37 °C in the presence of 5 % CO2 for 69 h. Resazurin was then added to a final concentration of 50 μM, and plates were incubated as above for a further 4 h before being read on a BioTek Flx800 fluorescence plate reader.

The next assay relates to T. b. brucei. The assay can be described thus: Trypanosome proliferation assay. The class given is cell-based, Trypanosoma brucei brucei. The following applies: for EC50: Trypanosoma brucei, read-out: EC50 T. b. brucei; for fold loss of activity (T. b. brucei EC50): relative to the comparator compound. On the procedure: as §1
Assay [2] has as its system T. brucei bloodstream-stage cells. The assay can be described thus: Static–cidal (SC) assay. The class given is cell-based, Trypanosoma brucei brucei. The following applies: for EC50 / MCC: Trypanosoma brucei; for EC50: 48 h; for MCC: read-out: MCC (minimal cidal concentration); for mode of antiparasitic effect (in words): text and figure legend, at concentrations tested; for plateau of dose–response curve (inhibition): static–cidal dose–response curve. How it is done:
Determination of cidality against T. brucei bloodstream-stage cells was performed using a static–cidal (SC) assay as previously reported.[26] Briefly, bloodstream-form trypanosomes were seeded into 384-well plates at 4×10^5 mL^−1 (50 μL per well), followed by immediate addition of resazurin (50 μM final) to one of the plates, and all plates were incubated at 37 °C, 5 % CO2. After 4 h the t0 plate was read using a PerkinElmer Victor 3 plate reader (λex=528 nm, λem=590 nm). The second plate was processed in the same manner 20 h later, and at 44 h the last plate was processed. The minimum cidal concentration (MCC) is defined as the lowest concentration of drug that results in a decrease of resorufin signal over time. For dose–response curves from this assay either a monophasic or a biphasic equation was used, depending on which one provided the best fit. For monophasic fits, the following four-parametric equation [Eq. (1)] was used:
in which A=percent inhibition at bottom, B=percent inhibition at top, C=EC50, D=slope, x=inhibitor concentration, and y=percent inhibition. Equation (2) was used for biphasic fits:
for which A=percent inhibition at mid-plateau, B=slope, C=log[SC EC50(1)], D=log[SC EC50(2)]. Thus SC EC50(1) is the EC50 for the first phase of the curve, and SC EC50(2) is that for the second phase. Inhibition at the bottom of the curve is fixed at 0 % and at the top, 100 %.

[3] abbreviates: geometric mean of two or more determinations, standard cell viability (resazurin) assay.
The mark [4] stands for this setting: static cidal EC50, first site/phase, read-out: SC EC50(1).
Where [5] appears, read: static–cidal assay in triplicate.

Where two headings read alike, the source gives them in different places. Some results are limits rather than exact numbers.

The term EC50 denotes the midpoint of the concentration-response curve. On to `COCCCn1c(=O)[nH]c2ncc(-c3ccc(OC(F)(F)F)cc3)nc21` [Compound 2], for which the half-maximal effective concentration (EC50) turned out to be 15000 nM in assay [1] and 500 nM in the assay on T. b. brucei (setting [3]).
Turning to `C[C@H](c1ccccc1)n1c(=O)[nH]c2ncc(-c3ccc(O)cc3)nc21` [Compound 3], in the assay with T. b. brucei (setting [3]), the EC50 is 900 nM.
As to `C[C@@H](c1ccccc1)n1c(=O)[nH]c2ncc(-c3ccc(F)cc3)nc21` [Compound 8], the EC50 in assay [1] was more than 50000 nM; in the assay on T. b. brucei (setting [3]), 90 nM.
With `O=c1[nH]c2ncc(-c3ccc(F)cc3)nc2n1Cc1ccccc1` [Compound 9, 1-Benzyl-6-(4-fluorophenyl)-1H-imidazo[4,5-b]pyrazin-2(3H)-one], the concentration for a half-maximal effect (EC50) in assay [1] was more than 50000 nM; in the assay with T. b. brucei (setting [3]) it was 500 nM.
In the case of `Cn1c(=O)[nH]c2ncc(-c3ccc(F)cc3)nc21` [Compound 11], the figures for the EC50 (in assay [1]; in the assay with T. b. brucei (setting [3])) were more than 50000 nM and 40000 nM, respectively. Besides, in the assay on T. b. brucei, the “fold loss of activity (T. b. brucei EC50)” value (“fold loss of activity” below) came out at 100 fold.
For `C[C@H](c1ccccc1)n1c(=O)[nH]c2ncc(-c3ccc(OC(F)(F)F)cc3)nc21` [Compound 15] the same measures were 39000 nM, 1000 nM and 10 fold.
The corresponding values for `C[C@H](c1ccccc1)n1c(=O)[nH]c2nccnc21` [Compound 16] are more than 50000 nM, 36000 nM and more than 300 fold.
For `C[C@H](c1ccccc1)n1c(=O)[nH]c2ncc(-c3cccc(F)c3)nc21` [Compound 17], the concentration giving a half-maximal response (EC50) in assay [1] came to 44000 nM; with T. b. brucei (setting [3]), 300 nM.
On to `CNC(=O)c1ccc(-c2cnc3[nH]c(=O)n(C4CCCCC4)c3n2)cc1` [Compound 22], for which the figures for the EC50 (in assay [1]; in the assay with T. b. brucei (setting [3])) were more than 50000 nM and 1700 nM, respectively. The “fold loss of activity” value with T. b. brucei was 30 fold.
In the case of `CN(C)Cc1ccc(-c2cnc3[nH]c(=O)n(C4CCCCC4)c3n2)cc1` [Compound 23], the half-maximal effective concentration (EC50) in assay [1] was more than 50000 nM; with T. b. brucei (setting [3]), 5000 nM. In the assay on T. b. brucei, the “fold loss of activity” value amounted to 50 fold.
With `CC(=O)Nc1cccc(-c2cnc3[nH]c(=O)n(C4CCCCC4)c3n2)c1` [Compound 25], the EC50 in assay [1] was more than 50000 nM; with T. b. brucei (setting [3]) it was 900 nM.
The corresponding values for `COc1ccccc1-c1cnc2[nH]c(=O)n(C3CCCCC3)c2n1` [Compound 27] are more than 50000 nM and 900 nM.
The corresponding values for `O=c1[nH]c2ncc(-c3ccncc3)nc2n1C1CCCCC1` [Compound 29] are more than 50000 nM and 70 nM.
In the case of `CN1CCN(c2cnc3[nH]c(=O)n(C4CCCCC4)c3n2)CC1` [Compound 33], the EC50 was more than 50000 nM in assay [1] and 2000 nM in the assay on T. b. brucei (setting [3]). For the same compound, the “fold loss of activity” value in the assay with T. b. brucei came out at 50 fold.
Regarding `CC(C)n1c(=O)[nH]c2ncc(-c3ccccc3)nc21` [Compound 36], the EC50 was more than 50000 nM in assay [1] and 300 nM with T. b. brucei (setting [3]). Further, in the assay on T. b. brucei, the “fold loss of activity” value worked out at 10 fold.
Take `O=c1[nH]c2ncc(-c3ccccc3)nc2n1-c1ccccc1` [Compound 37]: the EC50 (in assay [1]; in the assay with T. b. brucei (setting [3])) was more than 50000 nM each time.
In the case of `COCC(C)n1c(=O)[nH]c2ncc(-c3ccccc3)nc21` (stereo not shown) [Compound 39, 1-(1-Methoxypropan-2-yl)-6-phenyl-1H-imidazo[4,5-b]pyrazin-2(3H)-one], the concentration for a half-maximal effect (EC50) in assay [2] (setting [4]) was 410 nM; in assay [2] (static cidal EC50, second site/phase, read-out: SC EC50(2)) it was 32000 nM; in assay [1], more than 50000 nM; in the assay on T. b. brucei (setting [3]), 200 nM. For the same compound, the MCC in assay [2] (setting [5]) was more than 50000 nM. In assay [2] (static/cidal classification from growth curves), the Mode result is listed as “S”. Further, in assay [2], the “mode of antiparasitic effect (in words)” value is given as “growth-slowing or static behaviour”.
As for `CCC(CO)n1c(=O)[nH]c2ncc(-c3ccccc3)nc21` (stereo not shown) [Compound 40], the EC50 is more than 50000 nM in assay [1] and 500 nM in the assay with T. b. brucei (setting [3]). For the same compound, in the assay on T. b. brucei, the “fold loss of activity” value is recorded as approximately 10 fold.
For the compound `CN(C)CCn1c(=O)[nH]c2ncc(-c3ccccc3)nc21` [Compound 41], the values for the EC50 (in assay [1]; in the assay with T. b. brucei (setting [3])) were more than 50000 nM and 13000 nM, respectively.
On to `CN1CCC(n2c(=O)[nH]c3ncc(-c4ccccc4)nc32)CC1` [Compound 42], for which the EC50 was more than 50000 nM in assay [1] and 2000 nM in the assay on T. b. brucei (setting [3]).
Take `C[C@H](c1ccccc1)n1c(=O)[nH]c2ccc(-c3ccc(F)cc3)cc21` [Compound 47]: the EC50 with T. b. brucei (setting [3]) is 10000 nM. Also, the “fold loss of activity” value in the assay on T. b. brucei is on record as 100 fold.
The corresponding values for `C[C@H](c1ccccc1)n1c(=O)n(C)c2ncc(-c3ccc(F)cc3)nc21` [Compound 48] are 8000 nM and 100 fold.
Consider `CC(C)(c1ccccc1)n1c(=O)[nH]c2ncc(-c3cccnc3)cc21` [Compound 52], for which the EC50 in assay [1] is 23000 nM; in the assay on T. b. brucei (setting [3]), 790 nM.
For the compound `O=c1[nH]c2ncc(-c3ccccc3CO)cc2n1C1CCCCC1` [Compound 53], the EC50 in assay [1] is more than 50000 nM; in the assay with T. b. brucei (setting [3]), 670 nM. Besides, in the assay with T. b. brucei, the “fold loss of activity” value was approximately 13 fold.
For `CC(C)(c1ccccc1)n1c(=O)[nH]c2ncc(-c3ccccc3CO)cc21` [Compound 54], the results for the 50% effective concentration (EC50) (in assay [1]; with T. b. brucei (setting [3])) were more than 50000 nM and 15000 nM, respectively.
For `O=c1[nH]c2ncc(N3CCOCC3)cc2n1C1CCCCC1` [Compound 57], the EC50 in assay [1] is more than 50000 nM; in the assay with T. b. brucei (setting [3]) it was 330 nM. The “fold loss of activity” value in the assay on T. b. brucei was approximately 7 fold.
On to `OCc1ccccc1-c1cnc2[nH]nc(C3CCCCC3)c2c1` [Compound 61], for which the EC50 in assay [1] is more than 50000 nM; in the assay on T. b. brucei (setting [3]), 1300 nM.
The corresponding values for `COCc1ccccc1-c1cnc2[nH]nc(C3CCCCC3)c2c1` [Compound 62] are more than 50000 nM and 2600 nM.
`Nc1nc(N)nc(Nc2ccc([As]3SCC(CO)S3)cc2)n1` (stereo not shown) [melarsoprol, reference compound]: the EC50 in assay [2] (read-out: SC EC50(1)) was found to be 31 nM; with T. b. brucei, 9 nM. In assay [2], the MCC came to 100 nM. The “plateau of dose–response curve (inhibition)” value in assay [2] was 100 % inhibition.
On to `N=C(N)c1ccc(OCCCCCOc2ccc(C(=N)N)cc2)cc1` [pentamidine, reference compound], for which the EC50 in assay [2] (setting [4]) came to 19 nM. Also, the MCC in assay [2] (setting [5]) stood at 100 nM. In assay [2], the “plateau of dose–response curve (inhibition)” value was determined as 100 % inhibition and the “mode of antiparasitic effect (in words)” value is given as “cidal”. Also, the EC50 in the assay on T. b. brucei (setting [3]) amounted to 4 nM.
